SMILES strings stand for the structures.

The experiment has as its target T1, bovine cerebral TPK1 (Bos taurus, UniProt A0A3Q1MT31).
T1 construct: from tissue; host or cells: bovine brain (cerebrum)
The experiment in a line: Inhibitory activity against P-GS1 phosphorylation by bovine cerebral TPK1. It counts as biochemical. The settings on record: 41.7 μM [γ-32P]ATP, 25° C., 2 hours, pH 6.5. The protocol: Inhibitory Activity of the Medicament of the Present Invention Against P-GS1 Phosphorylation by Bovine Cerebral TPK1
A mixture containing 100 mM MES-sodium hydroxide (pH 6.5), 1 mM magnesium acetate, 0.5 mM EGTA, 5 mM β-mercaptoethanol, 0.02% Tween 20, 10% glycerol, 12 μg/ml P-GS1, 41.7 μM [y-^32P] ATP (68 kBq/ml), bovine cerebral TPK1 and a compound shown in Table (a final mixture contained 1.7% DMSO deriving from a solution of a test compound prepared in the presence of 10% DMSO) was used as a reaction system. The phosphorylation was started by adding ATP, and the reaction was conducted at 25° C. for 2 hours, and then stopped by adding 21% perchloric acid on ice cooling. The reaction mixture was centrifuged at 12,000 rpm for 5 minutes and adsorbed on P81 paper (Whatmann), and then the paper was washed four times with 75 mM phosphoric acid, three times with water and once with acetone. The paper was dried, and the residual radioactivity was measured using a liquid scintillation counter. […] PHF formation, and that the medicaments of the present invention are effective for preventive and/or therapeutic treatment of Alzheimer disease and the above-mentioned diseases.

T1 sequence (A0A3Q1MT31 1-419): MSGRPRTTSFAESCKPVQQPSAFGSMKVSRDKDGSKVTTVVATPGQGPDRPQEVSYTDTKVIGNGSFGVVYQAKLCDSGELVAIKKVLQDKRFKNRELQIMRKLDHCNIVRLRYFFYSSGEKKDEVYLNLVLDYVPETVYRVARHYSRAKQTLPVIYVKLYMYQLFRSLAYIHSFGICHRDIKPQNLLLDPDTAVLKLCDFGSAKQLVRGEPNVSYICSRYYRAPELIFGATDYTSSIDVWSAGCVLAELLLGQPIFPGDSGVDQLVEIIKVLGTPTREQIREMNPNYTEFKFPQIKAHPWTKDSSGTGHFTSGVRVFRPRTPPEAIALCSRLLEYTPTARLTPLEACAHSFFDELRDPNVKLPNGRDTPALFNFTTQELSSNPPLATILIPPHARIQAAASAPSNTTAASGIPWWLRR

`Cn1c(N2CCOC(c3cccc(N4CCCC4)c3)C2)nc(-c2ccncn2)cc1=O` (single isomer, unassigned) [Compound B275]: half-maximal inhibition (IC50) was put at 7 nM.

Turning to `Cn1c(N2CCOC(c3cccc(N4CCCC4)c3)C2)nc(-c2ccncn2)cc1=O` (single isomer, unassigned) [Compound B276], the IC50 (in general, the concentration that inhibits the measured activity by half) was determined as 4.8 nM.

The molecule `Cn1c(N2CCOC(C(=O)c3ccccc3)C2)nc(-c2ccncn2)cc1=O` (single isomer, unassigned) [Compound C789] had an IC50 of 38 nM.

The molecule `Cn1c(N2CCOC(C(=O)c3ccccc3)C2)nc(-c2ccncn2)cc1=O` (single isomer, unassigned) [Compound C790] registered a concentration for half-maximal inhibition (IC50) of 0.64 nM.

Regarding `Cn1c(NCC(=O)c2ccccc2)nc(-c2ccncn2)cc1=O` [Compound A119], the IC50 amounted to 24 nM.

As to `Cn1c(NCC(=O)c2cccc(F)c2)nc(-c2ccncn2)cc1=O` [Compound A121], the IC50 was found to be 19 nM.

Molecule `Cn1c(NCC(=O)c2cccc(Cl)c2)nc(-c2ccncn2)cc1=O` [Compound A124] displayed a half-maximal inhibitory concentration (IC50) of 11 nM.

`Cc1cccc(C(=O)CNc2nc(-c3ccncn3)cc(=O)n2C)c1` [Compound A130] returned an IC50 of 30 nM.

`Cn1c(N2CCOC(c3ccc(F)cc3)C2)nc(-c2ccncn2)cc1=O` (stereo not shown) [Compound B030] gave an IC50 of 11 nM.

In turn, `Cn1c(N2CCO[C@@H](c3ccc(F)cc3)C2)nc(-c2ccncn2)cc1=O` [Compound B031, (S)-2-[2-(4-fluorophenyl)morpholin-4-yl]-3-methyl-6-pyrimidin-4-yl-3H-pyrimidin-4-one] displayed an IC50 of 5 nM.

On to `Cn1c(N2CCO[C@H](c3ccc(F)cc3)C2)nc(-c2ccncn2)cc1=O` [Compound B032], for which the IC50 amounted to 32 nM.

In turn, `Cn1c(N2CCO[C@@H](c3ccccc3F)C2)nc(-c2ccncn2)cc1=O` [Compound B037] showed a 50% inhibitory concentration (IC50) of 3 nM.

For the molecule `COc1ccc([C@H]2CN(c3nc(-c4ccncn4)cc(=O)n3C)CCO2)cc1` [Compound B079, (S)-2-[2-(4-Methoxyphenyl)morpholin-4-yl]-3-methyl-6-pyrimidin-4-yl-3H-pyrimidin-4-one], the 50% inhibitory concentration (IC50) came to 2.9 nM.

`COc1cccc([C@H]2CN(c3nc(-c4ccncn4)cc(=O)n3C)CCO2)c1` [Compound B082] had an IC50 of 4.6 nM.

The molecule `COc1ccccc1C1CN(c2nc(-c3ccncn3)cc(=O)n2C)CCO1` (stereo not shown) [Compound B084] gave a concentration for half-maximal inhibition (IC50) of 1.2 nM.

`COc1ccccc1[C@H]1CN(c2nc(-c3ccncn3)cc(=O)n2C)CCO1` [Compound B085] came in with an IC50 of 0.87 nM.

`COc1cccc(OC)c1C1CN(c2nc(-c3ccncn3)cc(=O)n2C)CCO1` (stereo not shown) [Compound B102] showed an IC50 of 0.441 nM.

`COc1cccc(OC)c1[C@H]1CN(c2nc(-c3ccncn3)cc(=O)n2C)CCO1` [Compound B103]: the IC50 was determined as 0.23 nM.

As to `COc1cccc(OC)c1[C@@H]1CN(c2nc(-c3ccncn3)cc(=O)n2C)CCO1` [Compound B104], half-maximal inhibition (IC50) required 4.5 nM.

Consider `Cn1c(N2CCOC(c3c(Cl)cccc3Cl)C2)nc(-c2ccncn2)cc1=O` (stereo not shown) [Compound B105], for which the IC50 was found to be 0.27 nM.

Molecule `Cn1c(N2CCOC(c3ccc(CN4CCCC4)cc3)C2)nc(-c2ccncn2)cc1=O` (stereo not shown) [Compound B112] displayed a half-inhibitory concentration (IC50) of 2.1 nM.

Regarding `Cn1c(N2CCOC(c3ccccc3OCC3CC3)C2)nc(-c2ccncn2)cc1=O` (stereo not shown) [Compound B126], the IC50 came out at 23 nM.

In the case of `Cn1c(N2CCOC(c3ccc(N4CCCC4)cc3)C2)nc(-c2ccncn2)cc1=O` (stereo not shown) [Compound B140], the IC50 stood at 3.7 nM.

Regarding `COc1ccc(C2CN(c3nc(-c4ccncn4)cc(=O)n3C)CC(C)(C)O2)cc1` (stereo not shown) [Compound B217], half-maximal inhibition (IC50) required 26.1 nM.

`Cn1c(N2CCOC(c3nc4ccccc4s3)C2)nc(-c2ccncn2)cc1=O` (stereo not shown) [Compound B225] returned an IC50 of 12 nM.

With `Cn1c(N2CCOC(c3cccc4c3OCC4)C2)nc(-c2ccncn2)cc1=O` (stereo not shown) [Compound B237], the IC50 is 0.821 nM.

As for `COc1cc(F)ccc1[C@H]1CN(c2nc(-c3ccncn3)cc(=O)n2C)CCO1` [Compound B238], the concentration for half-maximal inhibition (IC50) is 0.47 nM.

`Cn1c(N2CCOC(c3c(F)cccc3Cl)C2)nc(-c2ccncn2)cc1=O` (stereo not shown) [Compound B239] displayed an IC50 of 0.74 nM.

As to `Cn1c(N2CCOC(c3ccc(F)cc3Cl)C2)nc(-c2ccncn2)cc1=O` (stereo not shown) [Compound B240], the IC50 was determined as 3.5 nM.

`CC(C)Oc1cc(F)ccc1C1CN(c2nc(-c3ccncn3)cc(=O)n2C)CCO1` (stereo not shown) [Compound B241] registered an IC50 of 4.6 nM.

In turn, `Cn1c(N2CCOC(c3cc4cc(F)ccc4n3C)C2)nc(-c2ccncn2)cc1=O` (stereo not shown) [Compound B242] yielded an IC50 of 6.9 nM.

The molecule `Cn1c(N2CCO[C@@H](c3cccc4c3OCC4)C2)nc(-c2ccncn2)cc1=O` [Compound B243] returned a half-maximal inhibitory concentration (IC50) of 4.2 nM.

On to `COc1cc(F)cc(OC)c1[C@H]1CN(c2nc(-c3ccncn3)cc(=O)n2C)CCO1` [Compound B244], for which the IC50 worked out at 0.17 nM.

In turn, `COc1cc(F)cc(OC)c1[C@@H]1CN(c2nc(-c3ccncn3)cc(=O)n2C)CCO1` [Compound B245] registered an IC50 of 1.3 nM.

`COc1cc(C)c(C)cc1C1CN(c2nc(-c3ccncn3)cc(=O)n2C)CCO1` (stereo not shown) [Compound B246] had a 50% inhibitory concentration (IC50) of 1.1 nM.

Regarding `Cn1c(N2CCOC(c3ccc(F)cc3OCC3CC3)C2)nc(-c2ccncn2)cc1=O` (stereo not shown) [Compound B247], the half-inhibitory concentration (IC50) turned out to be 15 nM.

For the molecule `COc1ccc(C#N)cc1C1CN(c2nc(-c3ccncn3)cc(=O)n2C)CCO1` (stereo not shown) [Compound B248], the IC50 turned out to be 0.78 nM.

As for `COc1cc(Cl)ccc1C1CN(c2nc(-c3ccncn3)cc(=O)n2C)CCO1` (stereo not shown) [Compound B249], the concentration for half-maximal inhibition (IC50) worked out at 0.83 nM.

Turning to `COc1cc(F)cc(F)c1C1CN(c2nc(-c3ccncn3)cc(=O)n2C)CCO1` (stereo not shown) [Compound B250], the IC50 is 0.56 nM.

On to `Cn1c(N2CCOC(c3noc4ccccc34)C2)nc(-c2ccncn2)cc1=O` (stereo not shown) [Compound B251], for which 2.4 nM corresponded to half-maximal inhibition (IC50).

`Cn1c(N2CCO[C@@H](c3noc4ccccc34)C2)nc(-c2ccncn2)cc1=O` [Compound B252] came in with a half-maximal inhibitory concentration (IC50) of 1 nM.

In the case of `COc1cc(C#N)ccc1C1CN(c2nc(-c3ccncn3)cc(=O)n2C)CCO1` (stereo not shown) [Compound B253], the 50% inhibitory concentration (IC50) is 0.7 nM.

Regarding `COc1cc(F)cc(F)c1[C@H]1CN(c2nc(-c3ccncn3)cc(=O)n2C)CCO1` [Compound B254], it took 0.24 nM to reach half-maximal inhibition (IC50).

`COc1ccc(-c2ccc(F)cc2)cc1C1CN(c2nc(-c3ccncn3)cc(=O)n2C)CCO1` (stereo not shown) [Compound B255]: the midpoint of inhibition, the IC50, lay at 4.6 nM.

Take `COc1ccc(-c2cccnc2)cc1C1CN(c2nc(-c3ccncn3)cc(=O)n2C)CCO1` (stereo not shown) [Compound B256]: 0.64 nM corresponded to half-maximal inhibition (IC50).

In turn, `Cn1c(N2CCOC(c3ccc(F)cc3O)C2)nc(-c2ccncn2)cc1=O` (stereo not shown) [Compound B257] gave an IC50 of 7.4 nM.

With `COc1cc(-c2ccccc2)ccc1C1CN(c2nc(-c3ccncn3)cc(=O)n2C)CCO1` (stereo not shown) [Compound B258], inhibition was half-maximal at 1.4 nM (IC50).

In turn, `COc1ccc(N2CCCC2)cc1C1CN(c2nc(-c3ccncn3)cc(=O)n2C)CCO1` (stereo not shown) [Compound B259] displayed an IC50 of 1.2 nM.

Molecule `COc1cc(N2CCCC2)ccc1C1CN(c2nc(-c3ccncn3)cc(=O)n2C)CCO1` (stereo not shown) [Compound B260] displayed a concentration for half-maximal inhibition (IC50) of 0.77 nM.

Molecule `COc1ccc(-c2ccccc2F)cc1C1CN(c2nc(-c3ccncn3)cc(=O)n2C)CCO1` (stereo not shown) [Compound B261] gave an IC50 of 1.4 nM.

Consider `COc1cccc(-c2ccc(OC)c(C3CN(c4nc(-c5ccncn5)cc(=O)n4C)CCO3)c2)c1` (stereo not shown) [Compound B262], for which the concentration for half-maximal inhibition (IC50) turned out to be 1.3 nM.

`COc1ccc(-c2ccc(Cl)cc2Cl)cc1C1CN(c2nc(-c3ccncn3)cc(=O)n2C)CCO1` (stereo not shown) [Compound B263] yielded an IC50 of 13 nM.

Regarding `COc1ccc(CN2CCCC2)cc1C1CN(c2nc(-c3ccncn3)cc(=O)n2C)CCO1` (stereo not shown) [Compound B264], half-maximal inhibition (IC50) required 0.6 nM.

Molecule `COc1ccc(-c2cccc(F)c2)cc1C1CN(c2nc(-c3ccncn3)cc(=O)n2C)CCO1` (stereo not shown) [Compound B266] had an IC50 of 1.6 nM.

Turning to `COc1ccccc1-c1ccc(OC)c(C2CN(c3nc(-c4ccncn4)cc(=O)n3C)CCO2)c1` (stereo not shown) [Compound B267], it took 1.2 nM to reach half-maximal inhibition (IC50).

For the molecule `COc1ccc(-c2ccc(OC)c(C3CN(c4nc(-c5ccncn5)cc(=O)n4C)CCO3)c2)cc1` (stereo not shown) [Compound B268], the half-inhibitory concentration (IC50) turned out to be 1.7 nM.

In turn, `COc1ccc(Nc2ccccc2)cc1C1CN(c2nc(-c3ccncn3)cc(=O)n2C)CCO1` (stereo not shown) [Compound B269] returned an IC50 of 1.1 nM.

The molecule `Cn1c(N2CCOC(c3ccc(F)cc3OCc3ccccc3)C2)nc(-c2ccncn2)cc1=O` (stereo not shown) [Compound B270] yielded an IC50 of 27 nM.

With `Cn1c(N2CCOC(c3cc4ccccc4o3)C2)nc(-c2ccncn2)cc1=O` (stereo not shown) [Compound B271], the half-maximal inhibitory concentration (IC50) stood at 4.2 nM.

In turn, `Cn1c(N2CCO[C@@H](c3cc4ccccc4o3)C2)nc(-c2ccncn2)cc1=O` [Compound B272] displayed an IC50 of 7.1 nM.

As for `COc1cccc2cc(C3CN(c4nc(-c5ccncn5)cc(=O)n4C)CCO3)oc12` (stereo not shown) [Compound B273], it took 4.3 nM to reach half-maximal inhibition (IC50).

Consider `COc1ccc(-c2cccc(CN3CCCC3)c2)cc1C1CN(c2nc(-c3ccncn3)cc(=O)n2C)CCO1` (stereo not shown) [Compound B274], for which the IC50 stood at 0.57 nM.

Turning to `COc1cc(-c2ccccc2F)ccc1C1CN(c2nc(-c3ccncn3)cc(=O)n2C)CCO1` (stereo not shown) [Compound B277], the half-inhibitory concentration (IC50) amounted to 1.4 nM.

Consider `COc1cc(-c2cccc(F)c2)ccc1C1CN(c2nc(-c3ccncn3)cc(=O)n2C)CCO1` (stereo not shown) [Compound B278], for which the IC50 was 1.1 nM.

For the origin of these results see patent US7572793B2, “3-Substituted-4-pyrimidone derivatives” (Mitsubishi Tanabe Pharma Corporation, priority 2001, dated 2009).
